From PMC8395244, “The Oxoglutarate Binding Site and Regulatory Mechanism Are Conserved in Ammonium Transporter Inhibitors GlnKs from Methanococcales” (International Journal of Molecular Sciences, 2021)

Key:
[1] = molecular target: T1, MtGlnK2 (Methanothermococcus thermolithotrophicus, UniProt Z9RMX6QOV2); test: X-ray crystal structure ([…] Å); assay type: binding; details: co-crystallised with 2 mM ATP, 2 mM 2OG, 2 mM MgCl2; pH 6.5; inter-subunit cleft
T1 construct: N-terminal His-tag (pET-28a(+)), tag kept (partially visible); codon-optimised gene in E. coli BL21(DE3); circa 12 kDa monomer, trimer; site between adjacent subunits

[2] = molecular target: T2, MjGlnK1^woT (Methanocaldococcus jannaschii, UniProt Q60381); test: X-ray crystal structure ([…] Å); assay type: binding; details: co-crystallised with 2 mM ATP, 2 mM 2OG, 2 mM MgCl2; pH 8.5; inter-subunit cleft
T2 construct: gene glnK1; untagged (stop codon before XhoI in pET-24b(+)); codon-optimised gene in E. coli BL21(DE3); circa 12 kDa monomer, trimer; 2J9D/2J9E are earlier structures of this protein (2J9E C-terminally tagged)
T2 sequence (Q60381 whole entry): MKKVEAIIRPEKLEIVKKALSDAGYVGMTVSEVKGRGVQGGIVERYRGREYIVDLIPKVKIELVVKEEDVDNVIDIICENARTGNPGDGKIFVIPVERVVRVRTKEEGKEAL

Structure (SMILES)	X-ray crystal structure (1.16 Å) [1]	X-ray crystal structure (1.20 Å) [2]
O=C(O)CCC(=O)C(=O)O [2OG]	MtGlnK2 and MjGlnK1^woT structures, co-crystallized with Mg-ATP and 2OG	MtGlnK2 and MjGlnK1^woT structures, co-crystallized with Mg-ATP and 2OG
Nc1ncnc2c1ncn2[C@@H]1O[C@H](COP(=O)(O)OP(=O)(O)OP(=O)(O)O)[C@@H](O)[C@H]1O [ATP]	MtGlnK2 and MjGlnK1^woT structures, co-crystallized with Mg-ATP and 2OG	MtGlnK2 and MjGlnK1^woT structures, co-crystallized with Mg-ATP and 2OG
